Where two headings read alike, the source gives them in different places.
How the values were obtained:
FAP [1] = test system: FAP; parameters: method as in PMID 24617858; settings: cited from earlier work; for IC50: (4-quinolinoyl)-glycyl-2-cyanopyrrolidine series, read-out: IC50 (FAP-inhibitory potency)
[2] = parameters: method as in PMID 30072500; settings: patients, preliminary dosimetry study; cited from earlier work
[3] = LogD7.4 measurement (n-octanol / phosphate buffer pH 7.4); format: physicochemical; settings: n-octanol / 0.1 M phosphate buffer pH 7.4, n = 3
Experimental: Briefly, ^68Ga-labeled tracers (1.11–1.48 MBq) were aliquoted into vials containing 3 mL of n-octanol and 3 mL of 0.1 M phosphate buffer (pH 7.4) in triplicate. Each vial was then vortexed (1 min) and centrifuged (5000 RPM, 10 min). The n-octanol and aqueous layers were sampled (1 mL) and counted using an automated gamma counter and the LogD7.4 value was calculated using the following equation: LogD7.4=log10counts in n-octanol phase/counts in buffer phase

[4] = test system: HEK293T:hFAP tumor-bearing mice; assay: Ex vivo biodistribution in HEK293T:hFAP tumor xenograft mouse model
Experimental: (§1) Imaging and biodistribution studies were performed using immunodeficient male NRG (NOD.Cg-Rag1tm1Mom Il2rgtm1Wjl/SzJ) mice. All experiments were conducted according to the guidelines established by the Canadian Council on Animal Care and approved by Animal Ethics Committee of the University of British Columbia. The mice were subcutaneously inoculated with 7.5 × 10^6 HEK293T:hFAP cells in the left dorsal flank. When the tumors grew to 6–8 mm in diameter, the mice were used for PET/CT imaging and biodistribution studies.
For biodistribution studies, the mice were injected with ~1–2 MBq (0.01–0.04 nmol) of the ^68Ga-labeled tracer, using the exact procedures described above. At 1 h post injection, the mice were euthanized by CO2 inhalation. Blood was withdrawn by cardiac puncture and organs/tissues of interest were collected, weighed, and counted using a Perkin Elmer (Waltham, MA, USA) Wizard2 2480 automatic gamma counter. The percent injected dose per gram of tissues (%ID/g) for different tracers was calculated.
(§2) For blocking studies, HEK293T:hFAP tumor-bearing mice were co-injected with [^68Ga]Ga-SB03045 and excess nonradioactive Ga-FAPI-04 (0.5 mg/mouse) as a competitor. Imaging and biodistribution were performed at 1 h pi, similar to the process for the unblocked mice.

[5] = test system: HEK293T:hFAP tumor xenografts; assay: PET/CT imaging in HEK293T:hFAP tumor-bearing mice; format: in vivo; settings: for Visualization of tumor xenografts in PET/CT images / Excretion pathway: 1 h pi; for Excretion pathway: PET/CT
Experimental: as §1
PET/CT imaging experiments were carried out using a Siemens Inveon micro PET/CT scanner (Knoxville, TN, USA). Tumor-bearing mice were injected with ~4 to 6 MBq (0.02–0.13 nmol) of ^68Ga-labeled tracer through a lateral caudal tail vein under 2.5% isoflurane in oxygen anesthesia, followed by recovery and free roaming in their cage during the uptake period. A 10 min localization CT scan was acquired using 3 overlapping positions to cover each entire mouse. A CT scan was used for attenuation and scatter correction, and anatomical localization. A list mode acquisition was then performed for 15 min at 1 h pi with each mouse under isoflurane sedation. The images were reconstructed using 3D OSEM/MAP iterative methods.
as §2

recombinant human FAP = target: T1, recombinant human FAP (Homo sapiens, UniProt Q12884); assay: In vitro fluorescence-based FAP enzymatic inhibition assay (Suc-Gly-Pro-AMC substrate); format: biochemical; settings: for IC50: recombinant human FAP, Suc-Gly-Pro-AMC, n = 3
T1 construct: purchased Biolegend
T1 sequence (Q12884 1-760): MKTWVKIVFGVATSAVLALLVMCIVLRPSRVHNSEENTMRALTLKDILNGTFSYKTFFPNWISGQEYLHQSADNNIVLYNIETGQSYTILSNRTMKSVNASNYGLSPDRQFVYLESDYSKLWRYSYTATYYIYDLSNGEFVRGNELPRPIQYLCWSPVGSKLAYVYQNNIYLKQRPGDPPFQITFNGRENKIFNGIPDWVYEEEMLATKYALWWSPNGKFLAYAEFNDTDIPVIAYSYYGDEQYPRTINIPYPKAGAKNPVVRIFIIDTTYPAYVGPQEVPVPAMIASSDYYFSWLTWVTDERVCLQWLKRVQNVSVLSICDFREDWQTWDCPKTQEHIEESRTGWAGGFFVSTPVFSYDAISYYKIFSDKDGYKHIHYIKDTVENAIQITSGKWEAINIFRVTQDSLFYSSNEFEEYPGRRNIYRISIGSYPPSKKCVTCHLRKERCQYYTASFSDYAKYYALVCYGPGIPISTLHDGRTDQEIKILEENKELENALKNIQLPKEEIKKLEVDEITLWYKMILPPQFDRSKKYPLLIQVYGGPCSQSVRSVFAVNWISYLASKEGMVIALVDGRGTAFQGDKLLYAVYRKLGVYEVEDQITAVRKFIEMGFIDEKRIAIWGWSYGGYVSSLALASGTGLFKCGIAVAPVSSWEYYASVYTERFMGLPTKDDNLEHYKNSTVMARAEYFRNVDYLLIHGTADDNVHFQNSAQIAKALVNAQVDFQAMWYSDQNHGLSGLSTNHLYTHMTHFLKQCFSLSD
Experimental: The half-maximal inhibitory concentration (IC50) values of the FAP-targeted ligands were measured using an in vitro enzymatic assay. Briefly, recombinant human FAP (Biolegend, San Diego, CA, USA; 0.2 µg/mL, 50 µL) was added into a Costar clear bottom 96-well plate. PBS and varied concentrations (25 pM to 1 µM) of ^natGa-complexed ligands were added to each well (in duplicate) containing the recombinant human FAP. After being incubated for 30 min at 37 °C, Suc-Gly-Pro-AMC (Bachem, Bubendorf, Switzerland; 20 mM, 50 µL) was added to each well. The velocities of AMC release were measured kinetically at λex = 380 nm, λem = 460 nm at 60 min at 37 °C using a FlexStation 3 Multi-Mode Microplate Reader.

FAP [6] = test system: FAP; parameters: method as in PMID 20718420; settings: substituted 4-carboxymethylpyroglutamic acid scaffold; read-out: IC50 (FAP-inhibitory activity); cited from earlier work
[7] = HEK293T:hFAP tumor-bearing mice, 1 h pi, unblocked
[8] = 0.5 mg/mouse natGa-FAPI-04, 1 h pi
[9] = HEK293T:hFAP tumor-bearing mice, 1 h pi, blocked: co-injected with natGa-FAPI-04 (0.5 mg/mouse)

N#CC1CC(F)CN1C(=O)CNC(=O)c1ccnc2ccccc12 [(4S)-fluoropyrrolidine]
IC50 (FAP [1]): 3.3 nM | Fold higher FAP affinity than the unsubstituted analog (FAP [1]): […]

N#C[C@@H]1CC(F)(F)CN1C(=O)CNC(=O)c1ccnc2ccc(OCCCN3CCN(C(=O)CN4CCN5CCN(CC(=O)O)CCN(CC4)CC(=O)[O][68Ga+][O]C(=O)C5)CC3)cc12 [[^68Ga]Ga-FAPI-04, reference compound]
Drop of tumor uptake from 1 to 3 h post-injection [2]: 25% | LogD7.4 [3]: −1.92 ± 0.35 | Adrenal Glands uptake [4, 7]: 1.31 ± 0.60 %ID/g | Blood uptake [4, 7]: 1.20 ± 0.30 %ID/g | Bone uptake [4, 7]: 3.79 ± 1.36 %ID/g | Brain uptake [4, 7]: 0.05 ± 0.01 %ID/g | Fat uptake [4, 7]: 0.14 ± 0.06 %ID/g | Heart uptake [4, 7]: 0.37 ± 0.08 %ID/g | Kidneys uptake [4, 7]: 1.88 ± 0.18 %ID/g | Liver uptake [4, 7]: 0.40 ± 0.07 %ID/g | Lungs uptake [4, 7]: 0.80 ± 0.16 %ID/g | Muscle uptake [4, 7]: 0.76 ± 0.20 %ID/g | Pancreas uptake [4, 7]: 0.44 ± 0.16 %ID/g | Small Intestines uptake [4, 7]: 0.37 ± 0.07 %ID/g | Spleen uptake [4, 7]: 0.60 ± 0.14 %ID/g | Stomach uptake [4, 7]: 0.16 ± 0.19 %ID/g | Testes uptake [4, 7]: 0.28 ± 0.04 %ID/g | Tumor/Blood uptake ratio [4, 7]: 10.5 ± 3.25 | Tumor/Bone uptake ratio [4, 7]: 3.49 ± 1.41 | Tumor/Kidney uptake ratio [4, 7]: 6.41 ± 1.52 | Tumor/Muscle uptake ratio [4, 7]: 16.8 ± 5.73

N#C[C@@H]1C[C@H](F)CN1C(=O)CNC(=O)c1ccnc2ccc(OCCCN3CCN(C(=O)CN4CCN5CCN(CC(=O)O)CCN(CC4)CC(=O)[O][68Ga+][O]C(=O)C5)CC3)cc12 [[^68Ga]Ga-SB03045]
LogD7.4 [3]: −2.81 ± 0.05 | Reduction in bone uptake by co-injection of excess natGa-FAPI-04 [4, 8]: ~ 97% | Reduction of average tumor uptake by co-injection of natGa-FAPI-04 [4, 8]: ~ 96% | Adrenal Glands uptake [4, 9]: 0.14 ± 0.08 %ID/g | Blood uptake [4, 9]: 0.19 ± 0.12 %ID/g | Bone uptake [4, 9]: 0.09 ± 0.05 %ID/g | Brain uptake [4, 9]: 0.01 ± 0.01 %ID/g | Fat uptake [4, 9]: 0.04 ± 0.02 %ID/g | Heart uptake [4, 9]: 0.05 ± 0.03 %ID/g | Kidneys uptake [4, 9]: 1.03 ± 0.43 %ID/g | Liver uptake [4, 9]: 0.13 ± 0.04 %ID/g | Lungs uptake [4, 9]: 0.15 ± 0.09 %ID/g | Muscle uptake [4, 9]: 0.05 ± 0.03 %ID/g | Pancreas uptake [4, 9]: 0.04 ± 0.03 %ID/g | Small Intestines uptake [4, 9]: 0.12 ± 0.06 %ID/g | Spleen uptake [4, 9]: 0.10 ± 0.05 %ID/g | Stomach uptake [4, 9]: 0.07 ± 0.06 %ID/g | Testes uptake [4, 9]: 0.06 ± 0.03 %ID/g | Tumor uptake [4, 9]: 0.51 %ID/g | Tumor/Blood uptake ratio [4, 9]: 3.06 ± 1.01 | Tumor/Bone uptake ratio [4, 9]: 6.67 ± 2.72 | Tumor/Kidney uptake ratio [4, 9]: 0.50 ± 0.01 | Tumor/Muscle uptake ratio [4, 9]: 12.4 ± 5.48 | Adrenal Glands uptake [4, 7]: 0.49 ± 0.47 %ID/g | Blood uptake [4, 7]: 1.31 ± 0.43 %ID/g | Bone uptake [4, 7]: 3.48 ± 1.02 %ID/g | Brain uptake [4, 7]: 0.05 ± 0.01 %ID/g | Fat uptake [4, 7]: 0.14 ± 0.08 %ID/g | Heart uptake [4, 7]: 0.41 ± 0.15 %ID/g | Kidneys uptake [4, 7]: 2.23 ± 0.41 %ID/g | Liver uptake [4, 7]: 0.47 ± 0.10 %ID/g | Lungs uptake [4, 7]: 0.69 ± 0.20 %ID/g | Muscle uptake [4, 7]: 0.83 ± 0.42 %ID/g | Pancreas uptake [4, 7]: 0.52 ± 0.22 %ID/g | Small Intestines uptake [4, 7]: 0.40 ± 0.10 %ID/g | Spleen uptake [4, 7]: 0.49 ± 0.19 %ID/g | Stomach uptake [4, 7]: 0.31 ± 0.04 %ID/g | Testes uptake [4, 7]: 0.26 ± 0.08 %ID/g | Tumor uptake [4, 7]: 11.8 ± 2.35 %ID/g | Tumor/Blood uptake ratio [4, 7]: 9.89 ± 3.80 | Tumor/Bone uptake ratio [4, 7]: 3.58 ± 1.07 | Tumor/Kidney uptake ratio [4, 7]: 5.41 ± 1.32 | Tumor/Muscle uptake ratio [4, 7]: 17.2 ± 8.68 | Visualization of tumor xenografts in PET/CT images [5]: clearly visualized | Excretion pathway [5]: excreted mainly via the renal pathway | Tumor uptake in PET/CT on co-injection with natGa-FAPI-04 ([5]; blocked, 0.5 mg/mouse natGa-FAPI-04, 1 h pi): reduced the tumor uptake to almost background level

N#C[C@@H]1CSCN1C(=O)CNC(=O)c1ccnc2ccc(OCCCN3CCN(C(=O)CN4CCN5CCN(CC(=O)O)CCN(CC4)CC(=O)[O][68Ga+][O]C(=O)C5)CC3)cc12 [[^68Ga]Ga-SB03058]
LogD7.4 [3]: −2.49 ± 0.28 | Fold lower tumor uptake than [68Ga]Ga-FAPI-04 ([4]; HEK293T:hFAP tumor-bearing mice, 1 h pi): ~ 1.5 fold | Adrenal Glands uptake [4, 7]: 2.50 ± 1.58 %ID/g | Blood uptake [4, 7]: 2.07 ± 0.21 %ID/g | Bone uptake [4, 7]: 4.73 ± 0.52 %ID/g | Brain uptake [4, 7]: 0.11 ± 0.08 %ID/g | Fat uptake [4, 7]: 0.40 ± 0.23 %ID/g | Heart uptake [4, 7]: 0.59 ± 0.09 %ID/g | Kidneys uptake [4, 7]: 2.64 ± 0.28 %ID/g | Liver uptake [4, 7]: 0.62 ± 0.19 %ID/g | Lungs uptake [4, 7]: 1.25 ± 0.11 %ID/g | Muscle uptake [4, 7]: 1.42 ± 0.31 %ID/g | Pancreas uptake [4, 7]: 0.86 ± 0.16 %ID/g | Small Intestines uptake [4, 7]: 0.61 ± 0.05 %ID/g | Spleen uptake [4, 7]: 1.48 ± 1.01 %ID/g | Stomach uptake [4, 7]: 0.26 ± 0.07 %ID/g | Testes uptake [4, 7]: 0.48 ± 0.10 %ID/g | Tumor uptake [4, 7]: 7.93 ± 1.33 %ID/g | Tumor/Blood uptake ratio [4, 7]: 3.82 ± 0.25 | Tumor/Bone uptake ratio [4, 7]: 1.67 ± 0.13 | Tumor/Kidney uptake ratio [4, 7]: 3.01 ± 0.32 | Tumor/Muscle uptake ratio [4, 7]: 5.64 ± 0.62 | Visualization of tumor xenografts in PET/CT images [5]: clearly visualized | Excretion pathway [5]: excreted mainly via the renal pathway

N#C[C@@H]1C[C@H](F)CN1C(=O)CNC(=O)c1ccnc2ccc(OCCCN3CCN(C(=O)CN4CCN5CCN(CC(=O)O)CCN(CC4)CC(=O)[O][Ga+][O]C(=O)C5)CC3)cc12 [^natGa-SB03045]
IC50 (recombinant human FAP): 1.59 ± 0.45 nM

N#C[C@@H]1CSCN1C(=O)CNC(=O)c1ccnc2ccc(OCCCN3CCN(C(=O)CN4CCN5CCN(CC(=O)O)CCN(CC4)CC(=O)[O][Ga+][O]C(=O)C5)CC3)cc12 [^natGa-SB03058]
FAP-binding potency, fold higher than the di-fluorinated analog (natGa-FAPI-04) (recombinant human FAP): > 5 fold | IC50 (recombinant human FAP): 0.68 ± 0.09 nM
